Consider eight molecules from PubChem BioAssay (NCI).

Among the test systems are SK-MEL-2 melanoma; CCRF-CEM leukemia; DU-145 prostate; MALME-3M melanoma; OVCAR-5 ovarian; 786-0 renal; HT29 colon; SN12C renal; UACC-257 melanoma; SR leukemia; M14 melanoma; A498 renal; HOP-62 NSCLC; NCI-H522 lung; U251 CNS; COLO 205 colon; HCT-116 colon; SF-268 CNS; RPMI-8226 leukemia.
Assay in all cases: NCI tumour cell line growth inhibition, 48 h

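Exposure lasted 48 hours, with cells grown in 96-well plates and compounds tested at five concentrations. TGI marks complete inhibition of growth.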

In the case of `COC1CC(n2ccc(=O)[nH]c2=O)OC1CO` (centres undefined), the TGI with SK-MEL-2 melanoma, in the assay with CCRF-CEM leukemia, in the assay on DU-145 prostate, in the assay on MALME-3M melanoma, in the assay with OVCAR-5 ovarian and with 786-0 renal was greater than 100 µM throughout. Further, the TGI in the assay with HT29 colon, with SN12C renal, with UACC-257 melanoma, in the assay on SR leukemia, in the assay on M14 melanoma and with A498 renal was greater than 100 µM in each case. Also, the TGI with HOP-62 NSCLC, in the assay on NCI-H522 lung, in the assay with U251 CNS, in the assay on COLO 205 colon, with HCT-116 colon and in the assay with SF-268 CNS was greater than 100 µM each time.

For the molecule `N#CC(C#N)=Cc1ccc(Oc2ccccc2)cc1`, the TGI in the assay with SK-MEL-2 melanoma was greater than 55.7 µM; with CCRF-CEM leukemia it was greater than 75.4 µM; in the assay on MALME-3M melanoma, 45.3 µM; with OVCAR-5 ovarian, greater than 100 µM; with 786-0 renal it was 33 µM; in the assay on HT29 colon it was 56.1 µM. For the same molecule, the TGI in the assay with SN12C renal is 20.6 µM; in the assay with UACC-257 melanoma it was greater than 71.3 µM; in the assay with SR leukemia, greater than 100 µM; in the assay on M14 melanoma, 47.2 µM; in the assay on A498 renal it was greater than 100 µM; with HOP-62 NSCLC, greater than 100 µM. The TGI was 61.6 µM with NCI-H522 lung; greater than 57 µM in the assay on U251 CNS; greater than 100 µM in the assay on COLO 205 colon; 44 µM with HCT-116 colon; greater than 69.5 µM in the assay on SF-268 CNS; 57.3 µM in the assay with RPMI-8226 leukemia.

As for `CCOC(=O)/C(=C/c1ccc(Cl)cc1)N(CC)CC`, the TGI with SK-MEL-2 melanoma, in the assay on CCRF-CEM leukemia, in the assay on MALME-3M melanoma, in the assay with OVCAR-5 ovarian, in the assay on 786-0 renal and in the assay with HT29 colon was greater than 100 µM in each case. Besides, the TGI in the assay with SN12C renal, in the assay with UACC-257 melanoma, in the assay on SR leukemia, in the assay with M14 melanoma, with A498 renal and in the assay with HOP-62 NSCLC was greater than 100 µM in each case. In addition, the TGI in the assay with NCI-H522 lung, in the assay on U251 CNS, with COLO 205 colon, with HCT-116 colon, in the assay with SF-268 CNS and in the assay with RPMI-8226 leukemia was greater than 100 µM in each case.

For the molecule `N#Cc1nc(C2SCCCS2)oc1N`, the TGI in the assay on SK-MEL-2 melanoma, with CCRF-CEM leukemia, in the assay on DU-145 prostate, in the assay with OVCAR-5 ovarian, with 786-0 renal and in the assay on HT29 colon was greater than 100 µM throughout. Also, the TGI in the assay on SN12C renal, in the assay on UACC-257 melanoma, with SR leukemia, in the assay on M14 melanoma, in the assay on A498 renal and with HOP-62 NSCLC was greater than 100 µM throughout. The TGI in the assay on U251 CNS, in the assay with HCT-116 colon, in the assay with SF-268 CNS and in the assay with RPMI-8226 leukemia was greater than 100 µM throughout.

With `O=C1NCC2(CCNCC2)N1`, the TGI with CCRF-CEM leukemia, in the assay with DU-145 prostate, in the assay on MALME-3M melanoma, in the assay on OVCAR-5 ovarian, with 786-0 renal and in the assay with HT29 colon was greater than 100 µM each time. The TGI in the assay with SN12C renal, in the assay with UACC-257 melanoma, in the assay on SR leukemia, in the assay on M14 melanoma, with A498 renal and with HOP-62 NSCLC was greater than 100 µM throughout. In addition, the TGI in the assay with U251 CNS, in the assay on COLO 205 colon, with HCT-116 colon, in the assay with SF-268 CNS and in the assay with RPMI-8226 leukemia was greater than 100 µM throughout.

Consider `COc1cccc(N2C(=O)[C@H]3[C@H]4CC(C(C)(C)C)CC[C@H]4c4c([nH]c5ccccc45)[C@H]3C2=O)c1` (some centres undefined), for which the TGI came out at 40.3 µM in the assay on SK-MEL-2 melanoma; 29.7 µM with CCRF-CEM leukemia; 47.4 µM with MALME-3M melanoma; 30.1 µM in the assay with 786-0 renal; 92.1 µM with HT29 colon; 26.5 µM in the assay with SN12C renal. Besides, the TGI in the assay on UACC-257 melanoma came to 48.6 µM; in the assay with M14 melanoma it was 30.7 µM; in the assay with HOP-62 NSCLC it was 31.7 µM; in the assay with NCI-H522 lung, 45.7 µM; in the assay with COLO 205 colon it was 32.2 µM; in the assay with SF-268 CNS, 54.7 µM. In addition, the TGI in the assay on RPMI-8226 leukemia was determined as 35 µM.

As for `O=c1nc(-c2ccccc2)scc1-c1ccccc1`, the TGI with SK-MEL-2 melanoma, with CCRF-CEM leukemia, with MALME-3M melanoma, with 786-0 renal, with HT29 colon and with SN12C renal was greater than 100 µM each time. For the same molecule, the TGI in the assay with UACC-257 melanoma, with SR leukemia, in the assay on M14 melanoma, with HOP-62 NSCLC, with NCI-H522 lung and in the assay on U251 CNS was greater than 100 µM each time. Besides, the TGI with COLO 205 colon, in the assay on HCT-116 colon, in the assay with SF-268 CNS and in the assay with RPMI-8226 leukemia was greater than 100 µM in each case.

`CC1C(=O)CC[C@@]2(C)C(=O)CCCC12O` (some centres undefined): the TGI with SK-MEL-2 melanoma, with DU-145 prostate, in the assay with MALME-3M melanoma, in the assay on OVCAR-5 ovarian, with 786-0 renal and in the assay with HT29 colon was greater than 100 µM each time. The TGI in the assay on SN12C renal, in the assay with UACC-257 melanoma, with SR leukemia, in the assay on M14 melanoma, in the assay on A498 renal and with HOP-62 NSCLC was greater than 100 µM each time. Besides, the TGI in the assay on NCI-H522 lung, in the assay on U251 CNS, in the assay with COLO 205 colon, with HCT-116 colon, in the assay on SF-268 CNS and in the assay on RPMI-8226 leukemia was greater than 100 µM throughout.
